Legend:
in vitro = conditions: rabbit, gastric mucosal cells
stress ulcer = assay: WIS: Restraint and Water Immersion Stress-Induced Ulcer Inhibition Test; assay type: in vivo, rat (male Crj:SD or Slc:SD); conditions: for WIS: ulcer formation inhibitory rate: 100 mg/kg oral, rats, water immersion stress 7 hours; for effect (anti-ulcer tests): comparison of examples within compound group 1-1
Method: WIS: Restraint and Water Immersion Stress-Induced Ulcer Inhibition Test
The degree of inhibition of the stress ulcer formation is tested.
Male Crj:SD or Slc:SD rats (6 to 7-week-old) were fasted overnight, but allowed free access to water. Each group has 5 to 8 of these rats. The sample compound was dissolved or suspended in an aqueous solution of 0.3% sodium carboxymethylcellulose or 0.05% Tween 80 and then was orally administered (100 mg/10 ml/kg). To a control group, the vehicle was administered. 10 minutes later, the rats were placed in a stress cage and immersed to the level of xipfoid process in a water bath (21° C.) for 7 hours. At the end of the stress, the rats were sacrificed by inhalation of ether or carbon dioxide. Then, the stomach of each was removed, inflated by injecting 10 ml of 5% formalin neutral buffer solution, and immersed in 1% formalin neutral buffer solution for 30 minutes or more to be fixed. The stomach was incised along the greater curvature and then the length of each erosion in the glandular portion was determined under dissecting microscope. The sum of the length of erosions per stomach was defined as ulcer index (UI).
The effect obtained when 100 mg/kg of the sample compound had been administered was expressed as ulcer formation inhibitory rate (%) as follows: [formula] VOL, TAO: Acid Secretion Inhibition Test In Vivo i) Meaning

Male Slc:ICR mice = tested on: Male Slc:ICR mice; parameters: species or system mouse (male Slc:ICR); conditions: mouse, in vivo
Method: AT: Single Dose Toxicity Pretest
Male Slc:ICR mice (5-week-old) were used. Each group has 3 to 5 mice and each mouse was fasted, but allowed free access to water, for 4 to 5 hours from 9 a.m. in the test day. Then, 2,000 mg/10 ml/kg of the sample compound dissolved or suspended in an aqueous solution of 0.5% sodium carboxymethyl cellulose was orally administered thereto. To a control, only the vehicle was administered. […] The body weight was measured before and after the fasting as well as at the same time everyday. The dead animals were immediately subjected to autopsy and their organs were observed microscopically. Also, the living animals were sacrificed with ether or carbon dioxide one week after the administration and then their organs were observed microscopically.
The toxicity at the single dose of 2,000 mg/kg of the sample compound was expressed as being classified into 5 levels.
5: Mortality rate is 0%; no toxicity is found at all both in behavior and organs.
4: Mortality rate is 0%; while no toxicity is found in organs, slight toxicity is observed in behavior and body weight increase.
3: While there is a dead animal (though not all the animals are dead), no toxicity is found in organs.
2: Regardless of whether there is a dead animal or not, toxicity is found in organs.
1: All the animals are dead.

[1] = tested on: isolated gastric fundic gland; assay: CAP: Acid Secretion Inhibition Test In Vitro ([14C]-aminopyrine uptake); assay type: cell-based, rabbit (male Japanese White); conditions: Oryctolagus cuniculus, 40 min; 10^-5 M compound, 10^-5 M histamine, rabbit isolated gastric fundic gland, 37° C., 40 minutes; read-out: CAP: acid secretion inhibitory rate
Method: With respect to the gastric juice volume (VOL) and the total acid output (TAO), the effects obtained when 100 mg/kg of the sample compound had been administered were expressed as their respective inhibitory rates (%) as follows: [formula] CAP: Acid Secretion Inhibition Test In Vitro i) Meaning
The acid secretion inhibitory activity in a cell level is studied. It can also be used for studying the mechanism of the effect.
ii-a) Preparation of isolated gastric fundus gland suspension
First, an isolated gastric fundic gland sample was prepared. […] Immediately thereafter, the stomach was removed and, after its pyloric and cardiac antrum were severed, incised along its greater curvature into two sheets. The gastric contents adhering to the mucosal surface was washed out with ice-cooled PBS (-) and then carefully washed therein. The gastric wall was spread on a cork board with its mucosal surface facing up and the feed and mucus thereon were completely removed with sterile gauze. The mucosa was separated therefrom by a spatula and then collected in ice-cooled PBS (-). After being washed twice with PBS (-), the mucosa was minced into 2-3 mm^3 pieces by scissors. These pieces were further washed twice with a nutrient solution. The nutrient solution comprises 132.4 mM of NaCl, 5.4 mM of KCl, 5 mM of Na2 HPO4.12H2 O, 1 mM of NaH2 PO4.2H2 O, 1.2 mM of MgSO4, 1 mM of CaCl2, 25 mM of HEPES, 2 mg/ml of glucose, and 1 mg/ml of BSA. Into 70 ml of the nutrient solution containing 1 mg/ml of collagenase, minced mucosal pieces were dispersed and intensely stirred in a conical flask with a stirrer at 37° C. for 40 to 60 minutes. During this period, 100% O2 was sprayed on the nutrient solution surface and the pH was appropriately measured such that it was immediately adjusted to pH 7.4, when the value was therebelow, with a base. The nutrient solution was added to the reaction solution so as to attain the total amount of about 200 ml. After being filtered through a mesh, the suspension was divisionally introduced into 50 ml centrifuge tubes and left for 15 minutes such that gastric fundic gland was deposited. The supernatant was repeatedly removed by an aspirator, dispersed in the nutrient solution, and then left such that the gastric fundic gland was washed three times. At this time, without using a pipette, the suspension was alternately introduced into two centrifuge tubes so as to effect dispersion. The number of cells was counted under microscope and adjusted to 1.6×10^6 cells/ml.
ii-b) [^14 C]-aminopyrine uptake test
Then, [^14 C]-aminopyrine uptake test was performed. After an Eppendorf tube was weighed, 10 μl (final concentration: 10^-5 M) of histamine dissolved in the above-mentioned nutrient solution, 10 μl (final concentration: 10^-5 M) of the test compound dissolved in DMSO, and 10 μl (final concentration: 0.05 μCi/ml) of [^14 C]-aminopyrine diluted with the nutrient solution were introduced therein and then 970 μl of the isolated gastric fundic gland suspension prepared above was added thereto. Subsequently, this mixture was shaken at 37° C. for 40 minutes at 125 cycles/minute. After being centrifuged for 30 minutes, 200 μl of its supernatant was collected into a mini-vial, while the rest was removed by an aspirator. The gland pellet was completely dried as the tube with its lid being opened was kept for one night in a drying oven at 80° C. and then the lid was closed and the weight was determined at room temperature. Then 100 μl of 1N KOH was added thereto and the tube with its lid being closed was treated at 60° C. for 1 to 2 hours so as to dissolve the pellet. Then, the contents thereof were transferred to a mini-vial. Into the mini-vial containing the supernatant or gland pellet, 4 ml of Atomlite™ was added and then the radioactivity was measured by a liquid scintillation counter. […]

| Structure (SMILES) | cytotoxicity at 4 h, 100 µM (in vitro) | WIS: ulcer formation inhibitory rate (stress ulcer) | inhibition at 10 µM [1] | further results |
| --- | --- | --- | --- | --- |
| CC(C)=CCOc1ccc(C(=O)NCCN2CCCCC2)cc1 [Example 1] | 1% | 67% |  |  |
| CC(C)=CCC/C(C)=C\COc1ccc(C(=O)NCCN2CCCCC2)cc1 [Example 2] |  | 79% |  | AT: toxicity at single dose, 5 levels (Male Slc:ICR mice): 3 |
| CC(C)=CCC/C(C)=C/COc1cccc(C(=O)NCCN2CCCCC2)c1 [Example 4] |  | 84% |  | AT: toxicity at single dose, 5 levels (Male Slc:ICR mice): 3 |
| CC(C)=CCC/C(C)=C/COc1ccccc1C(=O)NCCN1CCCCC1 [Example 5] | 21% | 78% |  |  |
| CC(C)=CCC/C(C)=C/CSc1ccccc1C(=O)NCCN1CCCCC1 [Example 7] |  | 87% |  | effect (anti-ulcer tests) (stress ulcer; result in words): the effect has been maintained |
| CCN(CCN1CCCCC1)C(=O)c1ccc(OC/C=C(\C)CCC=C(C)C)cc1 [Example 8] | 41% | 67% | 100% | effect (anti-ulcer tests) (stress ulcer; result in words): a sufficient effect can be obtained |
| CC(C)=CCC/C(C)=C/COc1ccc(C(=O)NCCN2CCCC(C)(C)C2)cc1 [Example 9] |  | 67% |  | effect (anti-ulcer tests) (stress ulcer; result in words): a sufficient effect can be obtained |
| CC(C)=CCC/C(C)=C/COc1ccc(C(=O)NCCN2CCCCC2)c(OC/C=C(\C)CCC=C(C)C)c1 [Example 12] | 38% | 75% |  |  |
| CC(C)=CCOc1ccc(C(=O)NCCN2CCCCC2)cc1OCC=C(C)C [Example 15] | 17% | 89% |  |  |
| CC(C)=CCOc1ccc(C(=O)NCCN2CCCCC2)c(OCC=C(C)C)c1 [Example 16] | 18% | 59% |  |  |
| CC(C)=CCOc1cc(OCC=C(C)C)cc(C(=O)NCCN2CCCCC2)c1 [Example 18] | 33% | 40% |  |  |
| COc1cccc(C(=O)NCCN2CCCCC2)c1OC/C=C(\C)CCC=C(C)C [Example 21] | 12% | 68% |  |  |
| COc1ccc(C(=O)NCCN2CCCCC2)c(OC/C=C(\C)CCC=C(C)C)c1 [Example 22] | 44% | 39% |  |  |
| COc1cc(C(=O)NCCN2CCCCC2)cc(OC)c1OC/C=C(\C)CCC=C(C)C [Example 26] | 17% | 72% |  | anti-ulcer effect (stress ulcer; result in words): more anti-ulcer effect |
| CC(C)=CCC/C(C)=C/COc1ccccc1C(=O)NCCN1CCOCC1 [Example 30] |  | 68% |  |  |
| CC(C)=CCC/C(C)=C/CSc1ccccc1C(=O)NCCN1CCOCC1 [Example 33] | 5% | 49% | 100% |  |
| CC(C)=CCC/C(C)=C/COc1ccc(C(=O)NCCN2CCOCC2)cc1OC/C=C(\C)CCC=C(C)C [Example 36] |  | 39% |  |  |
| CC(C)=CCC/C(C)=C/COc1ccc(C(=O)NCCN2CCOCC2)c(OC/C=C(\C)CCC=C(C)C)c1 [Example 37] |  | 71% |  |  |

| Structure (SMILES) | cytotoxicity at 4 h, 100 µM (in vitro) | WIS: ulcer formation inhibitory rate (stress ulcer) | inhibition at 10 µM [1] | further results |
| --- | --- | --- | --- | --- |
| CC(C)=CCC/C(C)=C/COc1cc(OC/C=C(\C)CCC=C(C)C)cc(C(=O)NCCN2CCOCC2)c1 [Example 38] | -12% | 55% |  |  |
| COc1ccc(OC/C=C(\C)CCC=C(C)C)c(C(=O)NCCN2CCOCC2)c1 [Example 40] |  | 70% |  |  |
| COc1cc(C(=O)NCCN2CCOCC2)cc(OC)c1OCC=C(C)C [Example 41] |  | 39% |  |  |
| CCN1CCN(CCNC(=O)c2ccc(OC/C=C(\C)CCC=C(C)C)cc2)CC1 [Example 45] | 30% | 36% | 99% |  |
| CC(C)=CCC/C(C)=C/COc1ccc(C(=O)NCCN2CCN(CCC(C)C)CC2)cc1 [Example 47] |  |  | 101% |  |
| CC(C)=CCC/C(C)=C/COc1ccc(C(=O)NCCN2CCN(CC(C)(C)C)CC2)cc1 [Example 48] |  |  | 100% |  |
| CCC(CC)CN1CCN(CCNC(=O)c2ccc(OC/C=C(\C)CCC=C(C)C)cc2)CC1 [Example 49] |  |  | 99.8% |  |
| CCCCN1CCN(CCNC(=O)c2ccc(OC/C=C(\C)CCC=C(C)C)cc2)CC1 [Example 50] |  |  | 95.9% |  |
| CCCCC(CC)CN1CCN(CCNC(=O)c2ccc(OC/C=C(\C)CCC=C(C)C)cc2)CC1 (centres unmarked) [Example 51] |  |  | 94.8% |  |
| CC(C)=CCC/C(C)=C/COc1ccc(C(=O)NCCN2CCN(c3ccccc3)CC2)cc1 [Example 52] | 11% |  | 99.1% |  |
| COc1ccc(N2CCN(CCNC(=O)c3ccc(OC/C=C(\C)CCC=C(C)C)cc3)CC2)cc1 [Example 53] | 7% |  | 98.7% |  |
| CC(C)=CCC/C(C)=C/COc1ccc(C(=O)NCCN2CCN(CC(=O)NC(C)C)CC2)cc1 [Example 54] |  |  | 100% |  |
| CC(C)=CCC/C(C)=C/COc1ccc(C(=O)NCCN2CCN(Cc3ccccc3)CC2)cc1 [Example 56] |  |  | 99.4% |  |
| CC(C)=CCC/C(C)=C/COc1ccc(C(=O)NCCN2CCN(Cc3ccc(F)cc3)CC2)cc1 [Example 57] |  |  | 99.4% |  |
| CC(C)=CCC/C(C)=C/COc1ccc(C(=O)NCCN2CCN(Cc3ccc4c(c3)OCO4)CC2)cc1 [Example 58] |  | 48% | 100% |  |
| CC(C)=CCC/C(C)=C/COc1ccc(C(=O)NCCN2CCN(c3nccs3)CC2)cc1 [Example 60] | 7% |  | 100% |  |
| CC(C)=CCC/C(C)=C/COc1ccc(C(=O)NCCN2CCN(c3ncccn3)CC2)cc1 [Example 61] | 3% |  | 100% |  |
